This is an account of results in US8802700B2 (Vertex Pharmaceuticals Incorporated, priority 2010, dated 2014).

In the test the target is T1, ΔF508-CFTR (Homo sapiens, UniProt P13569, DEL508-508).
T1 construct: expressed in transfected cells
Put plainly: Membrane potential optical assay (FRET voltage-sensor dyes, VIPR), identification of potentiator compounds. The class given is cell-based. The conditions noted are these: Table 3, assay not given; for Emax: read-out: % Activity (% Efficacy, relative efficacy). An excerpt: The optical membrane potential assay utilized voltage-sensitive FRET sensors described by Gonzalez and Tsien (See Gonzalez, J. E. and R. Y. Tsien (1995) “Voltage sensing by fluorescence resonance energy transfer in single cells” Biophys J 69(4): 1272-80, and Gonzalez, J. E. and R. Y. Tsien (1997) “Improved indicators of cell membrane potential that use fluorescence resonance energy transfer” Chem Biol 4(4): 269-77) in combination with instrumentation for measuring fluorescence changes such as the Voltage/Ion Probe Reader (VIPR) (See […]. Oades, et al. (1999) “Cell-based assays and instrumentation for screening ion-channel targets” Drug Discov Today 4(9): 431-439). These voltage sensitive assays are based on the change in fluorescence resonant energy transfer (FRET) between the membrane-soluble, voltage-sensitive dye, DiSBAC2(3), and a fluorescent phospholipid, CC2-DMPE, which is attached to the outer leaflet of the plasma membrane and acts as a FRET donor. Changes in membrane potential (Vm) cause the negatively charged DiSBAC2(3) to redistribute across the plasma membrane and the amount of energy transfer from CC2-DMPE changes accordingly. The changes in fluorescence emission were monitored using VIPRTM II, which is an integrated liquid handler and fluorescent detector designed to conduct cell-based screens in 96- or 384-well microtiter plates. To identify potentiators of ΔF508-CFTR, a double-addition HTS assay format was developed. During the first addition, a Cl^--free medium with or without test compound was added to each well. […] (in mM) NaCl 160, KCl 4.5, CaCl2 2, MgCl2 1, HEPES 10, pH 7.4 with NaOH. • Chloride-free bath solution: Chloride salts in Bath Solution #1 are substituted with gluconate salts. • CC2-DMPE: Prepared as a 10 mM stock solution in DMSO and stored at -20° C. • DiSBAC2(3): Prepared as a 10 mM stock in DMSO and stored at -20° C. NIH3T3 mouse fibroblasts stably expressing ΔF508-CFTR are used for optical measurements of membrane potential. […] For all optical assays, the cells were seeded at 30,000/well in 384-well matrigel-coated plates and cultured for 2 hrs at 37° C. before culturing at 27° C. for 24 hrs. for the potentiator assay.

Structures are written as SMILES.

T1 sequence (P13569 with tags, fused parts or gaps DEL508-508): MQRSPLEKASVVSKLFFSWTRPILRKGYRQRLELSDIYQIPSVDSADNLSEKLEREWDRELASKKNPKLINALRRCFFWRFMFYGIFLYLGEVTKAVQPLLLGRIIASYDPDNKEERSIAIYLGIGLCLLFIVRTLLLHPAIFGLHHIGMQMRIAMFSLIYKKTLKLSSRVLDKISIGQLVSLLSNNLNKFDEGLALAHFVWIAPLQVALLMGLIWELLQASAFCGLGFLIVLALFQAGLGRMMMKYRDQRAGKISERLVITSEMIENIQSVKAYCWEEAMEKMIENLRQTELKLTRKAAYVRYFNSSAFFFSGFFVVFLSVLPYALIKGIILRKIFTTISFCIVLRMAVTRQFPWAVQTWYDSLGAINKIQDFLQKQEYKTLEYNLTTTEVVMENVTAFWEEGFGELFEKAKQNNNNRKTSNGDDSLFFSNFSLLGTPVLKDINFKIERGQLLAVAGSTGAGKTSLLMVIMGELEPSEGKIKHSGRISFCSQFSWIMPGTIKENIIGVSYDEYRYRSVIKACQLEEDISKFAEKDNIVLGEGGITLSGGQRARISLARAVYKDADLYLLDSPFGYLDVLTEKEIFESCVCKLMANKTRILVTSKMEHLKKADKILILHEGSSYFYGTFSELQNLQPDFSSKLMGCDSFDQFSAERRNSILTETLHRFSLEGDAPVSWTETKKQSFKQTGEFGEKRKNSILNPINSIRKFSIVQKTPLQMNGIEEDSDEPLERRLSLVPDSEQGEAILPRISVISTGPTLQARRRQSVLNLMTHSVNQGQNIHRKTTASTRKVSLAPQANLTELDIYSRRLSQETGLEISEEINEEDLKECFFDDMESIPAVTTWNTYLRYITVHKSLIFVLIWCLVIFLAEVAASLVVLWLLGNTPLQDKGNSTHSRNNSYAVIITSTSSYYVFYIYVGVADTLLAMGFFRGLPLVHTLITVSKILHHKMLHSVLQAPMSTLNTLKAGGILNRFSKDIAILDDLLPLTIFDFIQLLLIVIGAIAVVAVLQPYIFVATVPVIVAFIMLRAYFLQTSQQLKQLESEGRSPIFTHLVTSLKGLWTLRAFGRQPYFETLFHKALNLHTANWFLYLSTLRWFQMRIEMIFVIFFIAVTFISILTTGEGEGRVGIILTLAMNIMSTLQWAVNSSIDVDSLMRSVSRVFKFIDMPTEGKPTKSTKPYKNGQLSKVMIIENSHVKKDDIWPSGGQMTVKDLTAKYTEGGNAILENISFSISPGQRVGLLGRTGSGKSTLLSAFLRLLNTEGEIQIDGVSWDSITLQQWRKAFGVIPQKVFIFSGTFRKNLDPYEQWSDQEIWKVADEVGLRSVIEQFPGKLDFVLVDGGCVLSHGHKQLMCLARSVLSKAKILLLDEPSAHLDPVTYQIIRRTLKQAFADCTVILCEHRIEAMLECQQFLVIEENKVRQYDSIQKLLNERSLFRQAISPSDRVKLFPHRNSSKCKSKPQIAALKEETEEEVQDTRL

As to `O=C(Nc1ccc2cc[nH]c2c1)c1c[nH]c2ccccc2c1=O` [Compound 33, N-(1H-indol-6-yl)-4-oxo-1H-quinoline-3-carboxamide], the Emax was in the range of 25 to 100%.
On the same count and under the same terms, the value for `CCC(CC)(CC)c1cc(F)c(NC(=O)c2cnc3ccccc3c2O)cc1O` [Compound 34, N-[4-(1,1-diethylpropyl)-2-fluoro-5-hydroxy-phenyl]-4-hydroxy-quinoline-3-carboxamide] was 25 to 100%; that for `CC1(C)CCCNc2cc(NC(=O)c3c[nH]c4ccccc4c3=O)ccc21` [Compound 35, 1,4-dihydro-N-(2,3,4,5-tetrahydro-5,5-dimethyl-1H-benzo[b]azepin-8-yl)-4-oxoquinoline-3-carboxamide] was 25 to 100%; that for `CC(C)c1ccccc1NC(=O)c1c[nH]c2ccccc2c1=O` [Compound 36, N-(2-isopropylphenyl)-4-oxo-1H-quinoline-3-carboxamide] was 25 to 100%.
Same read-out and setting: the figure for `O=C(Nc1cccc2cc[nH]c12)c1c[nH]c2ccccc2c1=O` [Compound 37, N-(1H-indol-7-yl)-4-oxo-1H-quinoline-3-carboxamide] is 25 to 100%; for `O=C(Nc1ccccc1-c1cc2ccccc2[nH]1)c1c[nH]c2ccccc2c1=O` [Compound 38, N-[2-(1H-indol-2-yl)phenyl]-4-oxo-1H-quinoline-3-carboxamide] it is 25 to 100%.
On to `COc1nc2ccccc2c(OC)c1C(=O)Nc1cc(NC(=O)OC(C)(C)C)ccc1C(C)(C)C` [Compound 39, [3-[(2,4-dimethoxy-3-quinolyl)carbonylamino]-4-tert-butyl-phenyl]aminoformic acid tert-butyl ester], for which the Emax is 25 to 100%.
The same measure, in the same setting: the value for `O=C(Nc1ccccc1CCO)c1c[nH]c2ccccc2c1=O` [Compound 40, N-[2-(2-hydroxyethyl)phenyl]-4-oxo-1H-quinoline-3-carboxamide] was under 25%.
As to `CCCc1ccc(N)cc1NC(=O)c1c[nH]c2ccccc2c1=O` [Compound 41, N-(5-amino-2-propyl-phenyl)-4-oxo-1H-quinoline-3-carboxamide], the EC50 was under 10 µM and the Emax fell in the range of 25 to 100%.
`O=C(Nc1ccccc1Oc1ncc(C(F)(F)F)cc1Cl)c1c[nH]c2ccccc2c1=O` [Compound 42, N-[2-[[3-chloro-5-(trifluoromethyl)-2-pyridyl]oxy]phenyl]-4-oxo-1H-quinoline-3-carboxamide]: the Emax is 25 to 100%.
Consider `CCOc1cccc(-c2cc(C(C)(C)C)c(O)cc2NC(=O)c2c[nH]c3ccccc3c2=O)c1` [Compound 43, N-[2-(3-ethoxyphenyl)-5-hydroxy-4-tert-butyl-phenyl]-4-oxo-1H-quinoline-3-carboxamide], for which the Emax was in the range of 25 to 100%.
Same read-out and setting: the value for `Cc1nc2cc(NC(=O)c3c[nH]c4ccccc4c3=O)ccc2s1` [Compound 44, N-(2-methylbenzothiazol-5-yl)-4-oxo-1H-quinoline-3-carboxamide] was 25 to 100%; that for `O=C(Nc1cc(Cl)cc(NS(=O)(=O)CCN2CCOCC2)c1)c1c[nH]c2ccccc2c1=O` [Compound 46, N-[3-chloro-5-(2-morpholinoethylsulfonylamino)phenyl]-4-oxo-1H-quinoline-3-carboxamide] was 25 to 100%.
On the same count and under the same terms, the value for `CC(C)c1ccc(NC(=O)c2c[nH]c3ccccc3c2=O)c(C(F)(F)F)c1` [Compound 47, N-[4-isopropyl-2-(trifluoromethyl)phenyl]-4-oxo-1H-quinoline-3-carboxamide] was 25 to 100%.
With `O=C(Nc1cc(Cl)ccc1F)c1c[nH]c2ccccc2c1=O` [Compound 48, N-(5-chloro-2-fluoro-phenyl)-4-oxo-1H-quinoline-3-carboxamide], the Emax was 25 to 100%.
On the same count and under the same terms, the value for `COc1cccc(OC)c1-c1ccccc1NC(=O)c1c[nH]c2ccccc2c1=O` [Compound 49, N-[2-(2,6-dimethoxyphenyl)phenyl]-4-oxo-1H-quinoline-3-carboxamide] was 25 to 100%; that for `Cc1cc(C)c(NC(=O)c2c[nH]c3ccccc3c2=O)c(C)c1` [Compound 50, 4-oxo-N-(2,4,6-trimethylphenyl)-1H-quinoline-3-carboxamide] was 25 to 100%; that for `CC1CCN(S(=O)(=O)c2ccc3[nH]cc(C(=O)Nc4cc5[nH]ccc5cc4C(C)(C)C)c(=O)c3c2)CC1` [Compound 51, 6-[(4-methyl-1-piperidyl)sulfonyl]-4-oxo-N-(5-tert-butyl-1H-indol-6-yl)-1H-quinoline-3-carboxamide] was 25 to 100%.
Regarding `Cc1cccc(-c2ccccc2NC(=O)c2c[nH]c3ccccc3c2=O)c1` [Compound 52, N-[2-(m-tolyl)phenyl]-4-oxo-1H-quinoline-3-carboxamide], the Emax lay within 25 to 100%.
On the same count and under the same terms, the figure for `O=C(Nc1ccncc1)c1c[nH]c2ccccc2c1=O` [Compound 53, 4-oxo-N-(4-pyridyl)-1H-quinoline-3-carboxamide] is under 25%; for `O=C(Nc1cccc2nsnc12)c1c[nH]c2ccccc2c1=O` [Compound 54, 4-oxo-N-(8-thia-7,9-diazabicyclo[4.3.0]nona-2,4,6,9-tetraen-5-yl)-1H-quinoline-3-carboxamide] it is under 25%.
The same measure, in the same setting: the value for `COc1c(N)cc(C(C)(C)C)cc1NC(=O)c1c[nH]c2ccccc2c1=O` [Compound 55, N-(3-amino-2-methoxy-5-tert-butyl-phenyl)-4-oxo-1H-quinoline-3-carboxamide] was under 25%; that for `O=C(Nc1cc2c(cc1O)CCCC2)c1c[nH]c2ccccc2c1=O` [Compound 56, 1,4-dihydro-N-(1,2,3,4-tetrahydro-6-hydroxynaphthalen-7-yl)-4-oxoquinoline-3-carboxamide] was 25 to 100%; that for `CCC1(c2ccc(NC(=O)c3c[nH]c4ccccc4c3=O)cc2)CCC(=O)NC1=O` (centres unmarked) [Compound 57, N-[4-(3-ethyl-2,6-dioxo-3-piperidyl)phenyl]-4-oxo-1H-quinoline-3-carboxamide] was over 100%.
The same measure, in the same setting: the figure for `Nc1cc(NC(=O)c2c[nH]c3ccccc3c2=O)ccc1OC(F)(F)F` [Compound 58, N-[3-amino-4-(trifluoromethoxy)phenyl]-4-oxo-1H-quinoline-3-carboxamide] is 25 to 100%; for `COc1ccc(C(C)C)cc1-c1ccccc1NC(=O)c1c[nH]c2ccccc2c1=O` [Compound 59, N-[2-(5-isopropyl-2-methoxy-phenyl)phenyl]-4-oxo-1H-quinoline-3-carboxamide] it is over 100%.
`CC(C)c1ccc(NC(=O)OC(C)(C)C)cc1NC(=O)c1c[nH]c2ccccc2c1=O` [Compound 60, [4-isopropyl-3-[(4-oxo-1H-quinolin-3-yl)carbonylamino]phenyl]aminoformic acid tert-butyl ester]: the Emax lay within 25 to 100%.
The same measure, in the same setting: the value for `Cc1cccc(NC(=O)c2c[nH]c3ccccc3c2=O)c1C` [Compound 61, N-(2,3-dimethylphenyl)-4-oxo-1H-quinoline-3-carboxamide] was 25 to 100%; that for `O=C(Nc1cccc(OC(F)(F)F)c1)c1c[nH]c2ccccc2c1=O` [Compound 62, 4-oxo-N-[3-(trifluoromethoxy)phenyl]-1H-quinoline-3-carboxamide] was 25 to 100%; that for `O=C(Nc1ccccc1-c1ccc(F)cc1F)c1c[nH]c2ccccc2c1=O` [Compound 63, N-[2-(2,4-difluorophenyl)phenyl]-4-oxo-1H-quinoline-3-carboxamide] was 25 to 100%.
The same measure, in the same setting: the figure for `O=C(Nc1ccc2[nH]c(=O)[nH]c2c1)c1c[nH]c2ccccc2c1=O` [Compound 64, 4-oxo-N-(2-oxo-1,3-dihydrobenzoimidazol-5-yl)-1H-quinoline-3-carboxamide] is under 25%; for `O=C(Nc1cc2[nH]ccc2cc1-c1cccnc1)c1c[nH]c2ccccc2c1=O` [Compound 65, 4-oxo-N-[5-(3-pyridyl)-1H-indol-6-yl]-1H-quinoline-3-carboxamide] it is 25 to 100%.
On the same count and under the same terms, the figure for `O=C(Nc1ccc2c(c1)OC(F)(F)O2)c1c[nH]c2ccccc2c1=O` [Compound 66, N-(2,2-difluorobenzo[1,3]dioxol-5-yl)-4-oxo-1H-quinoline-3-carboxamide] is 25 to 100%.
Regarding `CCc1ccc2ncc(C(=O)Nc3ccc4cc[nH]c4c3)c(O)c2c1` [Compound 67, 6-ethyl-4-hydroxy-N-(1H-indol-6-yl)quinoline-3-carboxamide], the Emax lay in the range of 25 to 100%.
As for `COC(=O)c1cccc(-c2ccccc2NC(=O)c2c[nH]c3ccccc3c2=O)c1` [Compound 68, 3-[2-[(4-oxo-1H-quinolin-3-yl)carbonylamino]phenyl]benzoic acid methyl ester], the EC50 is under 10 µM and the Emax fell in the range of 25 to 100%.
Turning to `CC(C)c1ccc(NC(=O)c2c[nH]c3ccccc3c2=O)cc1N` [Compound 69, N-(3-amino-4-isopropyl-phenyl)-4-oxo-1H-quinoline-3-carboxamide], the Emax was 25 to 100%.

As usually defined, the EC50 is the midpoint of the concentration-response curve.
